Assay results taken from US20230047816A1 (priority 2018, published 2023).
“Also recorded” adds a separate entry of the source.

Assays:
[1] = tested on: neurons transfected with PFK1-M; experiment: Excitotoxic insult in neurons overexpressing PFK1-M; format: cell-based, mouse; conditions: PFK1-M (muscle isoform) overexpression
Protocol: To address whether the protection caused by PFKFB3 inhibitors was a consequence of hampering the glycolytic activation (FIG. 4B), we aimed to investigate whether the overexpression of the glycolytic enzyme, PFK1-muscle isoform, could revert PFKFB3 inhibitors-mediated neuroprotection. […] Accordingly, neurons were first transfected with the full-length cDNA encoding for PFK1-M, and then subjected to the excitotoxic insult. Cells were transfected with 1.6 μg/mL of a pIRES2-EGFP plasmid vector (Invitrogen) harbouring a full-length cDNA coding for the human muscle 6-phosphofructo-1-kinase muscle isoform (PFK1-M) (accession number, NM_000289.1) using Lipofectamine LTX-PLUS Reagent (Life Technologies) according with manufacturer's protocol. Transfections were performed 24 hours before cells collection. Control cells were transfected with the empty vector. Cells were treated with excitotoxic stimuli as described above.

[2] = tested on: mouse primary cortical neurons; experiment: Lactate release (glycolysis) upon excitotoxic stimuli; format: cell-based; conditions: NMDA or glutamate 100 μM 10 minutes, then inhibitor 0.01 μM 24 hours
Protocol: To directly test the ability of the PFKFB3 inhibitor, AZ67 and Compound 1, to protect against the damage caused by excitotoxic stimuli, mouse primary cortical neurons were subjected to a short-term exposure to NMDA or glutamate (100 μM for 10 minutes), a well-known excitotoxic stimuli (Almeida and Bolahos, 2001). For NMDAR activation, neurons at 8 days in vitro were incubated with 100 μM glutamate (plus 10 μM glycine) or 100 μM NMDA (plus 10 μM glycine) for 10 minutes. Neurons were then washed and further incubated in culture medium with the PFKFB3 inhibitors for 24 hours. A colorimetric NADP/NADPH assay kit (Abcam) was used. […] NADPH was determined in 200 μl of the supernatant, after heatinged […] 60° C. for 30 minutes to decompose NADP+. Actual NADP and NADPH+ concentrations were calculated by extrapolating values to a NADPH standard curve (0-100 pmol/well).
In view that this treatment causes PFKFB3 stabilization leading to glycolytic activation and PPP inhibition (Rodriguez-Rodriguez et al., 2012), we reasoned that PFKFB3 inhibition by AZ67 and Compound 1 could abrogate these effects. […] To directly test whether this effect is associated with the control of PFKFB3 on glycolysis, we next assessed the glycolytic-end product, lactate, released to the incubation medium.

[3] = tested on: neurons from Cln7 knock out (KO) mice; experiment: In vitro model of Batten disease, active Caspase-3 Western blot; format: cell-based, mouse; conditions: 10 nM, 24 hours
Protocol: Primary cultures of C57BL/6J WT and Cln7Δex2 mice cortical neurons were prepared from fetal animals of 14.5 days of gestation, seeded at 1.8·10^5 cells/cm2 in plastic plates coated with poly-D-lysine […] and incubated in Neurobasal (Life Technologies) supplemented with 2 mM glutamine, 5 mM of glucose, 0.25 mM pyruvate and 2% B27 supplement (Life Technologies). Cells were incubated at 37° C. in a humidified 5% CO2-containing atmosphere. At 72 hours after plating, medium was replaced using Neurobasal (Life Technologies) supplemented with 2 mM glutamine, 5 mM glucose, 0.25 mM pyruvate and 2% B27 supplement (Life Technologies) minus antioxidants (MAO; i.e., lacking vitamin E, vitamin E acetate, superoxide dismutase, catalase, and glutathione). Six days after the plating medium was replaced again. Cells were used at day 9.
Neurons were incubated with 10 nM or vehicle for 24 hours and apoptosis was evaluated by measuring the level of active Caspase-3 form using Western blot. Neurons were lysed in RIPA buffer (2% sodium dodecylsulphate, 2 mM EDTA, 2 mM EGTA and 50 mM Tris pH 7.5), supplemented with protease and phosphatase inhibitor cocktail (100 μM phenylmethylsulfonyl fluoride, 50 μg/ml antipapain, 50 μg/ml pepstatin, 50 μg/ml amastatin, 50 μg/ml leupeptin, 50 μg/ml bestatin, 1 mM o-vanadate, 50 mM NaF, and 50 μg/ml soybean trypsin inhibitor) and boiled for 5 min. […]

[4] = tested on: mouse primary cortical neurons; experiment: Apoptosis upon glutamate or NMDA (annexin V+/7AAD-); format: cell-based; conditions: for prevention of apoptotic neuronal death: inhibitor 0.01 μM
Protocol: To directly test the ability of the PFKFB3 inhibitor, AZ67 and Compound 1, to protect against the damage caused by excitotoxic stimuli, mouse primary cortical neurons were subjected to a short-term exposure to NMDA or glutamate (100 μM for 10 minutes), a well-known excitotoxic stimuli (Almeida and Bolahos, 2001). For NMDAR activation, neurons at 8 days in vitro were incubated with 100 μM glutamate (plus 10 μM glycine) or 100 μM NMDA (plus 10 μM glycine) for 10 minutes. Neurons were then washed and further incubated in culture medium with the PFKFB3 inhibitors for 24 hours. A colorimetric NADP/NADPH assay kit (Abcam) was used. Cells were resuspended in 500 μl of NADP/NADPH extraction buffer, vortexed and centrifuged at 14,000 rpm for 5 minutes to remove insoluble material. The supernatant was used for NADPH +plus NADP+ measurement. NADPH was determined in 200 μl of the supernatant, after heatinged […] 60° C. for 30 minutes to decompose NADP+. Actual NADP and NADPH+ concentrations were calculated by extrapolating values to a NADPH standard curve (0-100 pmol/well).
To show this, neurons were treated with glutamate of NMDA, and apoptosis assessed by annexin V+/7AAD− staining using flow cytometry, as described above.

For `Cc1noc(C)c1Cn1cc(C#N)c2cc(Oc3ccc(NC(=O)[C@@H]4CCCN4)cc3)ccc21` [AZ67, (2S)-N-[4-({3-cyano-1-[(3,5-dimethyl-1,2-oxazol-4-yl)methyl]-1H-indol-5-yl}oxy)phenyl]pyrrolidine-2-carboxamide], the “neuroprotection under PFK1-M overexpression” value [1] was “abolish the neuroprotection; also recorded: abrogates the neuroprotective effect”, the “lactate released (activation of glycolysis)” value [2] was “fully prevented; also recorded: prevent the increase in lactate production” and the “apoptosis level (active Caspase-3)” value [3] was “significantly reduced”. For the same compound, the protection from apoptosis ([4]; NMDA and glutamate) was “protect mouse primary cortical neurons from apoptosis”, the “prevention of apoptotic neuronal death” value ([4]; NMDA) was 90% and the “prevention of apoptotic neuronal death” value ([4]; glutamate) was 76%.
